The values below come from article PMC7932080, “In vitro study of Hesperetin and Hesperidin as inhibitors of zika and chikungunya virus proteases” (PLoS ONE, 2021).

Where “and” joins values, the source holds several entries; their conditions need not be identical. Equal entries are not always repeated. Where two headings read alike, the source gives them in different places. A value given as a limit tells only on which side of the number the result lay.

The target in series [1] is T1, ZIKV NS2B/NS3^pro (Zika virus, UniProt A0A024B7W1). Also on record: method as in PMID 28700665. To be noted: cited from earlier work.
Series [2] has as its target T2, CHIKV nsP2^pro (Chikungunya virus, UniProt Q8JUX6). Briefly: CHIKV nsP2^pro FRET-based inhibition assay. In kind it is biochemical. To be noted: for % activity, mean / % inhibition, mean: mean n=3.
Another series has as its system trypsin. The arrangement: method as in PMID 23124490. As to conditions: cited from earlier work.
Series [3] concerns CHIKV. To be noted: cited from earlier work.
The conditions of series [4]: dose of administration 20 mg/kg, cited from earlier work.
The conditions of series [5]: cited from earlier work.
For series [6] the following is noted: cited from earlier work. The source holds these as a separate data set.
For another series, the system named is Vero cells. Briefly: Cell viability through MTT assay.
Series [7] addresses T2, CHIKV nsP2^pro. Briefly: Intrinsic Trp fluorescence titration (KD). As to conditions: Trp fluorescence quenching, ± STD.
In series [8] the target is T2, CHIKV nsP2^pro. As to the kind of experiment: Thermal unfolding by fluorescence spectroscopy. As to conditions: 10 µM protease, 75 µM ligand.
For series [9], the system named is CHIKV. As to the kind of experiment: Plaque reduction antiviral assay in Vero cells. As to conditions: ~50 PFU, two inhibitor concentrations.
The target in series [10] is T1, ZIKV NS2B/NS3^pro. As to the kind of experiment: ZIKV NS2B/NS3^pro inhibition assay, fluorogenic substrate Pyr-Arg-Thr-Lys-Arg-AMC. To be noted: compound 20 µM.
The target in series [11] is T2, CHIKV nsP2^pro. The arrangement: method as in PMID 32791353. As to conditions: cited from earlier work.

T1 sequence (A0A024B7W1 1425-1464): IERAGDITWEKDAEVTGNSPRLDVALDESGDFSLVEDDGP
T1 sequence (A0A024B7W1 1503-1680): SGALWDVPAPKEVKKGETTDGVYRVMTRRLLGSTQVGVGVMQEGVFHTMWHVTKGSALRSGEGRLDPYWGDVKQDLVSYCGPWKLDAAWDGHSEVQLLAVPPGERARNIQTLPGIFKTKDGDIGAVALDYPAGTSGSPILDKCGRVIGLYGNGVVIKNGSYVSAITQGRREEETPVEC
T2 sequence (Q8JUX6 1001-1333): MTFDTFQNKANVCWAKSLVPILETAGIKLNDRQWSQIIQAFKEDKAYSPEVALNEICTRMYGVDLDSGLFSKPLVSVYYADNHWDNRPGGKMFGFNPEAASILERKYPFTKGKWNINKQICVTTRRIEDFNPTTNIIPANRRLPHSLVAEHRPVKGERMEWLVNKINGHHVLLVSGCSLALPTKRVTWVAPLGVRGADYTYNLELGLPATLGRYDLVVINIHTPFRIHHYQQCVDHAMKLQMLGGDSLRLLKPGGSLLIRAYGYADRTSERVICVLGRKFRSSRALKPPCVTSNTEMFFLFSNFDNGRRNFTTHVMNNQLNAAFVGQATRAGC

A word on the IC50: it is the midpoint of a concentration-inhibition curve. Take `O=c1cc(-c2ccc(O)cc2)oc2cc(O)cc(O)c12` [Apigenin]: at ZIKV NS2B/NS3^pro [1], the IC50 was 56.3 ± 0.9 µM and the Inhibition mode entry is given as “noncompetitive”.
As to `COc1cc(/C=C/C(=O)CC(=O)/C=C/c2ccc(O)c(OC)c2)ccc1O` [Curcumin], on ZIKV NS2B/NS3^pro [1], the Inhibition mode entry was “noncompetitive”.
For orientation: inhibition means the change of the read-out against control, counted positive when it falls. The term % inhibition denotes the relative decrease from the control value, in per cent. Low values mean little suppression, high ones strong suppression. For orientation: Kd means the constant that tells how readily two partners part at equilibrium. Read a high Kd as a looser complex. One may read the ΔTm as the change in melting temperature against a reference sample. `COc1ccc([C@@H]2CC(=O)c3c(O)cc(O[C@@H]4O[C@H](CO[C@@H]5O[C@@H](C)[C@H](O)[C@@H](O)[C@H]5O)[C@@H](O)[C@H](O)[C@H]4O)cc3O2)cc1O` [HSD, 3’,5,7-trihydroxy-4’-methoxy-flavanone-7-rhamnoglucoside]: the IC50 against CHIKV nsP2^pro [2] (1 µM protease, 3 µM substrate, mean ± SD, n=3) was less than 10000 nM; at CHIKV nsP2^pro [2] (IC50, 1 µM protease, 3 µM substrate, mean ± SD, n=3) it was 7100 ± 1100 nM; against CHIKV nsP2^pro [2] (IC50, single replicate, HSD, single replicates A, B, C), 8.32 µM (2×) and 5.62 µM (2×) and 7.24 µM (2×); on CHIKV nsP2^pro [2] (Log conc nM (IC50 determination triplicate), HSD, single replicates A, B, C), 8320 nM and 5620 nM and 7240 nM; against CHIKV nsP2^pro [2] (pIC50, from IC50 by online tool), 6310 nM; in the series on trypsin it was 127 µM. Further, at CHIKV nsP2^pro [2] ((1.4*pIC50)/N), the “LE (ligand efficiency)” value was 0.17. In addition, the “% activity, mean” value turned out to be 97.3333% at CHIKV nsP2^pro [2] (HSD 0.25 (µM)); 90.3333% on CHIKV nsP2^pro [2] (HSD 0.5 (µM)); 82% at CHIKV nsP2^pro [2] (HSD 1 (µM)); 72.3333% at CHIKV nsP2^pro [2] (HSD 2.5 (µM)); 54.6667% at CHIKV nsP2^pro [2] (HSD 5 (µM)); 39.6667% on CHIKV nsP2^pro [2] (HSD 10 (µM)). For the same molecule, the “% activity, mean” value at CHIKV nsP2^pro [2] (HSD 15 (µM)) came out at 28.6667%; at CHIKV nsP2^pro [2] (HSD 20 (µM)), 21%; at CHIKV nsP2^pro [2] (HSD 25 (µM)), 10.3333%; at CHIKV nsP2^pro [2] (HSD 30 (µM)), 6%; on CHIKV nsP2^pro [2] (HSD 35 (µM)), 3%; on CHIKV nsP2^pro [2] (HSD 40 (µM)) it was 0.4%. In addition, the “% inhibition, mean” value on CHIKV nsP2^pro [2] (HSD 0.25 (µM)) was 2.667%; on CHIKV nsP2^pro [2] (HSD 0.5 (µM)), 9.667%; at CHIKV nsP2^pro [2] (HSD 1 (µM)), 18%; at CHIKV nsP2^pro [2] (HSD 2.5 (µM)) it was 27.6667%; on CHIKV nsP2^pro [2] (HSD 5 (µM)) it was 45.3333%; at CHIKV nsP2^pro [2] (HSD 10 (µM)), 60.3333%. Further, the “% inhibition, mean” value amounted to 71.3333% at CHIKV nsP2^pro [2] (HSD 15 (µM)); 79% at CHIKV nsP2^pro [2] (HSD 20 (µM)); 89.6667% at CHIKV nsP2^pro [2] (HSD 25 (µM)); 94% at CHIKV nsP2^pro [2] (HSD 30 (µM)); 99.6% on CHIKV nsP2^pro [2] (HSD 40 (µM)). Also, the inhibition at 0.5 µM on CHIKV nsP2^pro [2] (HSD 0.5 (µM), replicates A-C) was 11%. In addition, the “% activity” value is on record as 84% at CHIKV nsP2^pro [2] (HSD 1 (µM), replicates A-C) and 30% on CHIKV nsP2^pro [2] (HSD 15 (µM), replicates A-C). For the same molecule, the “% inhibition” value at CHIKV nsP2^pro [2] (HSD 1 (µM), replicates A-C) turned out to be 16%; on CHIKV nsP2^pro [2] (HSD 15 (µM), replicates A-C), 70%. On CHIKV nsP2^pro [2] (HSD 1 (µM), replicates A-C), this molecule came in with an inhibition at 1 µM of 22%. Also, the inhibition at 2.5 µM against CHIKV nsP2^pro [2] (HSD 2.5 (µM), replicates A-C) turned out to be 33%. The molecule also showed an inhibition at 5 µM at CHIKV nsP2^pro [2] (HSD 5 (µM), replicates A-C) of 49%. The molecule also gave an inhibition at 10 µM on CHIKV nsP2^pro [2] (HSD 10 (µM), replicates A-C) of 62%. In addition, the inhibition at 15 µM at CHIKV nsP2^pro [2] (HSD 15 (µM), replicates A-C) amounted to 74%. Also, the inhibition at 20 µM on CHIKV nsP2^pro [2] (HSD 20 (µM), replicates A-C) is 82%; at CHIKV nsP2^pro [2] (read-out: Inhibition of protease activity, preliminary inhibition test, compound 20 µM) it was greater than 60%. Moreover, the inhibition at 25 µM against CHIKV nsP2^pro [2] (HSD 25 (µM), replicates A-C) stood at 93%. The molecule further displayed an inhibition at 30 µM at CHIKV nsP2^pro [2] (HSD 30 (µM), replicates A-C) of 97%. For the same molecule, the inhibition at 35 µM against CHIKV nsP2^pro [2] (HSD 35 (µM), replicates A-C) worked out at 99%. The molecule further showed an inhibition at 40 µM against CHIKV nsP2^pro [2] (HSD 40 (µM), replicates A-C) of 99.7%. This molecule showed an inhibition at 45 µM against CHIKV nsP2^pro [2] (HSD 45 (µM), replicates A-C) of 100%. At CHIKV nsP2^pro [2] (Lineweaver-Burk plot), the Inhibition mode entry is “noncompetitive”. Further, the remaining activity at 0.25 µM on CHIKV nsP2^pro [2] (read-out: % activity, HSD 0.25 (µM), replicates A-C) stood at 95%. Besides, the remaining activity at 0.5 µM at CHIKV nsP2^pro [2] (read-out: % activity, HSD 0.5 (µM), replicates A-C) was found to be 89%. Besides, the remaining activity at 1 µM at CHIKV nsP2^pro [2] (read-out: % activity, HSD 1 (µM), replicates A-C) came out at 78%. The remaining activity at 2.5 µM at CHIKV nsP2^pro [2] (read-out: % activity, HSD 2.5 (µM), replicates A-C) was 67%. Moreover, on CHIKV nsP2^pro [2] (read-out: % activity, HSD 5 (µM), replicates A-C), the remaining activity at 5 µM was found to be 51%. For the same molecule, the remaining activity at 10 µM on CHIKV nsP2^pro [2] (read-out: % activity, HSD 10 (µM), replicates A-C) was 38%. Besides, on CHIKV nsP2^pro [2] (read-out: % activity, HSD 15 (µM), replicates A-C), the remaining activity at 15 µM was 26%. Further, the remaining activity at 20 µM on CHIKV nsP2^pro [2] (read-out: % activity, HSD 20 (µM), replicates A-C) was found to be 18%. For the same molecule, at CHIKV nsP2^pro [2] (read-out: % activity, HSD 25 (µM), replicates A-C), the remaining activity at 25 µM was determined as 7%. The remaining activity at 45 µM at CHIKV nsP2^pro [2] (read-out: % activity, HSD 45 (µM), replicates A-C) worked out at 0%. The “Intracellular replication of CHIKV” value in the series with CHIKV [3] is “inhibit”. Besides, the AUC inf. in series [4] was 4.92 ± 0.38 µM·h. Moreover, the AUC last in series [4] was 4.12 ± 0.26 µM·h. Further, the Cl systemic clearance in series [4] was 112 ± 9.67 mL/min/kg. The “MRT mean residence time” value in [4] is 4.22 ± 0.67 h. The T1/2 elimination half-life in [4] is given as 6.74 ± 0.79 h. Also, the “Vd volume of distribution” value in series [4] is on record as 64.58 ± 3.70 L/kg. Also, the C0 in [4] (read-out: Co initial concentration) was 7.47 ± 1.64 µM. The “Potential maximal tolerated dose” value in [5] is “Citrus flavonoids are extremely safe and without side effects also up to high concentrations of 100 mg/kg to 500 mg/kg”. The Bioavailability entry in series [6] is “limited bioavailability”. In the series on Vero cells (2.3 to 300 µM, 2 days), the “Cytotoxic effect at the calculated IC50 concentrations” value is recorded as “no cytotoxic effect”. The same molecule had a 50% cytotoxic concentration in the series on Vero cells (48 h, concentrations up to 300 µM) greater than 300 µM. Binding at CHIKV nsP2^pro [7] was put at a Kd of 40.7 ± 2 µM. Moreover, the “Melting temperature (Tm) of protease-ligand complex” value at CHIKV nsP2^pro [8] was 52 °C. Besides, the ΔTm on CHIKV nsP2^pro [8] came out at 5 °C. In addition, in the series on CHIKV [9], the “Antiviral activity, plaque reduction” value was “no antiviral activities”. Further, on ZIKV NS2B/NS3^pro [10], the “Inhibition of protease activity, preliminary inhibition test” value is given as “not relevant inhibition”.
Regarding `COc1cc(-c2oc3cc(O)cc(O)c3c(=O)c2O)ccc1O` [Isorhamnetin], at ZIKV NS2B/NS3^pro [1], the half-inhibitory concentration (IC50) was 15.5 ± 0.7 µM and the Inhibition mode entry is “noncompetitive”.
In the case of `O=c1cc(-c2ccc(O)c(O)c2)oc2cc(O)cc(O)c12` [Luteolin], at ZIKV NS2B/NS3^pro [1], the Inhibition mode entry is recorded as “noncompetitive”.
As for `O=c1c(O)c(-c2cc(O)c(O)c(O)c2)oc2cc(O)cc(O)c12` [Myricetin], at ZIKV NS2B/NS3^pro [1], the IC50 was 1.3 ± 0.1 µM and the Inhibition mode entry was “noncompetitive”.
On to `CO[C@@H]1[C@@H](OC(N)=O)[C@@H](O)[C@H](Oc2ccc3c(O)c(NC(=O)c4ccc(O)c(CC=C(C)C)c4)c(=O)oc3c2C)OC1(C)C` [Novobiocin], for which, at CHIKV nsP2^pro [11], the IC50 is 2 µM.
On to `O=c1c(O)c(-c2ccc(O)c(O)c2)oc2cc(O)cc(O)c12` [Quercetin], for which, on ZIKV NS2B/NS3^pro [1], the IC50 was 2.4 ± 0.2 µM and the Inhibition mode entry is given as “noncompetitive”.
On to `CCCc1nc2c(C)cc(-c3nc4ccccc4n3C)cc2n1Cc1ccc(-c2ccccc2C(=O)O)cc1` [Telmisartan], for which the 50% inhibitory concentration (IC50) on CHIKV nsP2^pro [11] was 5 µM.
